Test results from patent publication US4973586A, “Fused benzazepines, compositions of, and medical use thereof” (Schering Corporation, priority 1988, dated 1990).
Structures can show the parent of a compound that is named as a salt. Where two headings read alike, the source gives them in different places.

Tests used:
[1] = target: T1, dopamine D-1 receptor (Rattus norvegicus, UniProt P18901); test: Competitive inhibition assay, displacement of 3H-SCH 23390 (D-1 receptor binding); design: species or system rat (male Sprague-Dawley, striatal tissue)
T1 construct: Striatal tissue was excised, pooled, and homogenized; from tissue; host or cells: rat striatum, washed membrane pellet (male Sprague-Dawley rats, Charles River)
T1 sequence (P18901 whole entry): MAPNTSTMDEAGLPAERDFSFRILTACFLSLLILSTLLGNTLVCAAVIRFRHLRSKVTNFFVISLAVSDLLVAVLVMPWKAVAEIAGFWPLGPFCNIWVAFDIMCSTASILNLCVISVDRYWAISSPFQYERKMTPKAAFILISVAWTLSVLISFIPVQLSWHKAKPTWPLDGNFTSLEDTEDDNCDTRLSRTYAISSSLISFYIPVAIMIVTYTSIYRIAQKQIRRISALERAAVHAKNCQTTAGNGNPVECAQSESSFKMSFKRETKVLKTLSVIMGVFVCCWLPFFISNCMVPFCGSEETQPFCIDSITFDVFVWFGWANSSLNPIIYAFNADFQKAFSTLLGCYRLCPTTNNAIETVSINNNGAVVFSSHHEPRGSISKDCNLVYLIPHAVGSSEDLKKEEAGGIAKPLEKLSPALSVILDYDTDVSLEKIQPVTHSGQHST
Text: (§1) Many compounds capable of effecting reproducible physiological changes in neural tissues are believed to operate by binding at one or more receptor sites.
(§2) A methodology for characterization of D-1 and D-2 receptor binding and an interpretation of the data are described by Billard et al., Life Sciences 35, 1885 (1984) in which the binding of the benzazepine (R)-(+)-8-chloro-2,3,4,5-tetrahydro-3-methyl-5-phenyl-1H- 3-benzazepin-7-ol hemimaleate (SCH 23390) to the dopamine D-1 receptor is characterized. A selectivity for D-1 receptor binding as compared to D-2 receptor binding is believed to confer the therapeutic advantage of avoiding troublesome and potentially irreversible neurological side effects associated with D-2 receptor occupancy.
(§3) Tritiated SCH 23390 and tritiated spiperone (a potent D-2 receptor ligand) were obtained as described in the Billard et al. reference supra and serially diluted in 0.05M Tris buffer, pH 7.4, as required. Compounds of this invention were synthesized as disclosed herein and diluted in 0.05M Tris buffer, pH 7.4, as required.
(§4) Male Sprague-Dawley rats (200 to 250 g) from Charles River Breeding Laboratories, Mass. were used to obtain brain tissue. The rats were humanely sacrificed and their brains removed and placed on ice. Striatal tissue was excised, pooled, and homogenized (Brinkman Polytron, 10 sec) in 100 volumes (w/v) of ice cold 50 mM Tris buffer, pH 7.4 (at 25° C.). The homogenate was centrifuged at 20,000 xg for 10 min. The resultant pellet was rehomogenized in Tris buffer and centrifuged again. The final pellet was resuspended in 50 mM Tris buffer pH 7.4 containing 120 mM NaCl, 5 mM KCl, 2 mM CaCl2, and 1 mM MgCl2.
(§5) Polypropylene incubation tubes received 100 μl of the individual test compounds at various concentrations dissolved or suspended in 0.05M Tris, pH 7.4 containing 4 mg/ml methylcellulose, 100 μl of a solution of ^3 H-SCH 23390 in Tris buffer (final reaction mixture concentration=0.3 nM) or 100 μl of a solution of ^3 H-spiperone in Tris buffer (final concentration=0.2 nM) and 800 μl of tissue suspension (ca. 3 mg/assay). Tubes were incubated at 37° C. for 15 minutes and rapidly vacuum filtered through Whatman GF/B filters and rinsed 4 times with 4 ml of ice cold 50 mM Tris buffer, pH 7.4. The filters were transferred to scintillation vials, equilibated with 10 ml of scintillant (Scintosol, Isolab, Inc.) for 16 hours at 25° C. and the radioactivity determined in a liquid scintillation counter. Ki values were determined as described by Billard et al. using the relationship Ki = IC50 /(1+([L]/KD)) wherein IC50 =concentration of test drug necessary to displace 50% of specifically bound ^3 H-Sch 23390, [L]=concentration of radioligand used in the assay, and KD =dissociation constant.

[2] = target: T2, D-2 receptor (Rattus norvegicus, UniProt P61169); test: Competitive inhibition assay, displacement of 3H-spiperone (D-2 receptor binding); design: species or system rat (male Sprague-Dawley, striatal tissue)
T2 construct: Striatal tissue was excised, pooled, and homogenized; from tissue; host or cells: rat striatum, washed membrane pellet (male Sprague-Dawley rats, Charles River)
T2 sequence (P61169 whole entry): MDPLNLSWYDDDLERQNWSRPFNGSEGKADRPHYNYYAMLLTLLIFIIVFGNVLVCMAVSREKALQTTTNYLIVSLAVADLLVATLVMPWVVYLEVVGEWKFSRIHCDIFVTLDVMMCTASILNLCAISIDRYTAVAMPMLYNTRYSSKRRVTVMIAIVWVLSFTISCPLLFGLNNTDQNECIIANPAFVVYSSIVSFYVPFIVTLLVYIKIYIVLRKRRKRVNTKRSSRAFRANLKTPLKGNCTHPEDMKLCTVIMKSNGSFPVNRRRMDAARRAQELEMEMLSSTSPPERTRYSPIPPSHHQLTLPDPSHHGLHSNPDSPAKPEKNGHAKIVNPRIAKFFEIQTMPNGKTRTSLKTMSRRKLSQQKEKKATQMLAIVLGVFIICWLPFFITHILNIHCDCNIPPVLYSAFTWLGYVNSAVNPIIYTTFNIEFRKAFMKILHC
Text: as §1, §2, §3, §4, §5

[3] = Conditioned avoidance suppression (CAR) in rats; type: in vivo; conditions: lowest dose significantly (P≤0.05) reducing avoidance responding, rat, in mg/kg
Experimental: A series of experiments was carried out to assess the ability of the compounds of this invention to suppress the conditioned avoidance response (CAR) in rats.
Rats were required to jump onto a platform located 6.75 inches (17.15 cm) above the grid floor of an experimental chamber in response to a 5-second tone to avoid a 10-second foot shock (0.6 ma). Each experimental session consisted of 20 such trials presented at 30-second intervals. A correct CAR is scored whenever the rat jumps onto the platform during the tone (prior to foot shock). An escape response is scored when the rat jumps onto the platform during a shock. A response failure is defined as the lack of an escape response during the 10-second shock period.
Groups of 6-8 rats were trained in two consecutive days (total of 40 trials). Rats that reached criterion on day 2 (correct CARs on 16 or more of the 20 trials) were treated with either a test drug or vehicle on day 3. Suppression of CAR was analyzed statistically using Student's t-test comparing the performance of rats on day 2 with their performance following drug on day 3.

[4] = Squirrel monkey conditioned avoidance response (CAR) test; type: in vivo; conditions: for MEAN (±SE) NUMBER OF […] 6 HOURS POST-TREATMENT: 10 mg/kg p.o., vehicle 59.1 + 0.9 (N=7); for ability to significantly decrease the number of avoidances six hours after dosing (duration): 10 mg/kg po, six hours prior to testing; for ED50: Primates, po
Text: This test was designed to measure the effective duration of candidate compounds.
Male or female squirrel monkeys weighing 800-1200 g housed one per cage were utilized. Initially each monkey was taught to terminate a 3 mA electric shock delivered through the grid floor of the test cage and an overlapping tone by depressing a lever in the cage.
In the second phase of the testing, a ten second tone is turned on prior to the shock component. A lever press during the sounding of the tone terminates the tone and prevents the occurrence of the shock component and is denoted as an "avoidance".
The compound testing was commenced after three consecutive days of re-testing. […] The monkey must achieve at least an 85% correct avoidance before drug testing commences. If this minimal avoidance level is achieved, the next day the monkey is orally dosed or injected with the subject compounds in the appropriate vehicle and the number of avoidances are recorded. An animal is defined as having been "affected" by any drug treatment if there is a 50% loss of avoidance behavior relative to the performance of the animal when only the vehicle was injected. The minimal effective dose (MED) is defined as that dose producing an effect in at least 50% of the animals.
A test was conducted to determine the effective duration of a compound of the present invention, 6,7,7a,8,9,13b-hexahydro-3-chloro-2-hydroxy-7-methyl-5H-benzo[ d]naphtho[2,1-b]azepine, denoted as Compound A, compared to a known compound, (d)-7-chloro-8-hydroxy-3-methyl-1-phenyl-2,3,4,5-tetrahydro-1h-3-benzazepine maleate, denoted as Compound B (Sch 23390)
The duration of each compound was determined by administering a 10 mg/kg po dose six hours prior to testing.

[5] = rat striatum, 3H-spiperone 0.2 nM, pH 7.4, 37° C., 15 min, read-out: Ki, 3H-Spip
[6] = rat striatum, 3H-SCH 23390 0.3 nM, pH 7.4, 37° C., 15 min, read-out: Ki, 3H-23390

| Compound | Ki [2, 5] [µM] | Ki [2] [µM] | CAR (MED) ([3]; po) | Ki [1, 6] [µM] | also measured |
| --- | --- | --- | --- | --- | --- |
| CN1CCc2ccc(O)cc2[C@H]2c3ccccc3CC[C@@H]21 (relative stereo) [CH2, 1, trans, H, OH, trans-6,7,7a,8,9,13b-Hexahydro-2-hydroxy-7-methyl-5H-benzo[d]naphtho[2,1-b]azepine] | 3.5 | – | – | – | Ki [1]: 0.08 µM |
| COc1cc2c(cc1O)CCN(C)[C@@H]1CCc3ccccc3[C@H]21 (relative stereo) [CH2, 1, cis, HO, CH3O] | – | > 100 | – | – | – |
| CN1CCc2cc(Cl)c(N)cc2[C@H]2c3ccccc3CC[C@@H]21 (relative stereo) [CH2, 1, trans, Cl, NH2] | 4.17 | – | 3 | – | Ki [1]: 0.07 µM |
| Cc1cc2c(cc1O)[C@H]1c3ccccc3CC[C@@H]1N(C)CC2 (relative stereo) [CH2, 1, trans, CH3, OH, trans-6,7,7a,8,9,13b-hexahydro-2-hydroxy-3-methyl-7-methyl-5 H-benzo[d]naphtho[2,1-b]azepine] | – | 7.2 | – | 0.119 | – |
| COc1cc2c(cc1O)CCN(C)[C@H]1CCc3ccccc3[C@H]21 (relative stereo) [CH2, 1, trans, HO, CH3O, trans-6,7,7a,8,9,13b-Hexahydro-3-hydroxy-2-methoxy-7-methyl-5H-benzo[d]naphtho[2,1-b]azepine] | – | > 100 | – | – | – |
| CN1CCc2cc(Cl)c(O)cc2[C@@H]2c3ccccc3CC[C@H]21 [CH2, 1, 7b(S):7a(R)(+), Cl, OH, (+)-trans-6,7,7a,8,9,13b-hexahydro-3-chloro-2-hydroxy-7-methyl-5H-benzo[d]naphtho[2,1-b]azepine] | – | – | > 30 | – | – |
| CN1CCc2cc(Cl)c(O)cc2[C@H]2c3ccccc3CC[C@@H]21 (relative stereo) [CH2, 1, trans, Cl, OH, trans-6,7,7a,8,9,13b-Hexahydro-3-chloro-2-hydroxy-7-methyl-5H-benzo[d]naphtho[2,1-b]azepine] | – | – | 30 | – | CAR (MED) ([3]; sc): 0.3 |
| CN1CCc2cc(Cl)c(O)cc2[C@@H]2c3ccccc3C[C@H]21 (relative stereo) [CH2, 0, trans, Cl, OH, trans-5,6,7,7a,8,12b-Hexahydro-2-hydroxy-3-chloro-7-methyl-benz[d]indeno[2,1-b]azepine] | 2.6 | – | – | – | Ki [1]: 0.01 µM |
| COc1cc2c(cc1O)[C@H]1c3ccccc3CC[C@H]1N(C)CC2 (relative stereo) [CH2, 1, cis, CH3O, OH] | – | > 100 | – | 6.45 | – |
| COc1cc2c(cc1O)CCN(C)[C@H]1CCCc3ccccc3[C@H]21 (relative stereo) [CH2, 2, trans, HO, CH3O] | > 100 | – | – | 7.73 | CAR (MED) ([3]; sc): 10 |
| COc1cc2c(cc1O)[C@H]1c3ccccc3CCC[C@@H]1N(C)CC2 (relative stereo) [CH2, 2, trans, CH3O, OH] | > 100 | – | – | 0.292 | CAR (MED) ([3]; sc): 10 |
| CN1CCc2cc(Cl)c(O)cc2[C@@H](c2ccccc2)C1 [Compound B, (d)-7-chloro-8-hydroxy-3-methyl-1-phenyl-2,3,4,5-tetrahydro-1h-3-benzazepine maleate, reference compound] | – | – | – | – | MEAN (±SE) NUMBER OF […] 6 HOURS POST-TREATMENT [4]: 59.7 + 0.3; ability to significantly decrease the number of avoidances six hours after dosing (duration) [4]: inactive; ED50 ([4]; 0.5 h): 2.4 mg/kg |
| CN1CCc2cc(Cl)c(O)cc2[C@H]2c3ccccc3CC[C@@H]21 [CH2, 1, 7b(R):7a(S)(-), Cl, OH, (-)-trans-6,7,7a,8,9,13b-Hexahydro-3-chloro-2-hydroxy-7-methyl-5H-benzo[b]naphtho[2,1-b]azepine] | – | – | 30 | – | – |
| COc1cc2c(cc1O)[C@H]1c3ccccc3CC[C@@H]1N(C)CC2 (relative stereo) [CH2, 1, trans, CH3O, OH, trans-6,7,7a,8,9,13b-Hexahydro-2-hydroxy-3-methoxy-7-methyl-5H-benzo[d]naphtho[2,1-b]azepine] | – | 2.5 | 30 | – | Ki [1]: 0.023 µM; CAR (MED) ([3]; sc): 0.3-1 |
| CN1CCc2cc(Cl)c(O)cc2C2c3ccccc3CCC21 (stereo not shown) [Compound A, 6,7,7a,8,9,13b-hexahydro-3-chloro-2-hydroxy-7-methyl-5H-benzo[d]naphtho[2,1-b]azepine] | – | – | – | – | MEAN (±SE) NUMBER OF […] 6 HOURS POST-TREATMENT [4]: 23.9 + 7.5; ability to significantly decrease the number of avoidances six hours after dosing (duration) [4]: significant decrease in the number of avoidances (≤0.05); ED50 ([4]; 1 h, administered 60 minutes prior to the test, read-out: ED50): ~1.6 mg/kg |
| CN1CCc2ccc(O)cc2[C@@H]2c3ccccc3OC[C@H]21 (relative stereo) [O, 1, trans, H, OH, trans-6,6a,7,8,9,13b-Hexahydro-7-methyl-[1]benzopyrano[4,3-a][3]benzazepin-12-ol] | – | – | – | 0.121 | – |
